Here are results for six compounds from ChEMBL document CHEMBL5257063, “Dendrillic Acids A and B: Nitrogenous, Rearranged Spongian Nor-Diterpenes from a Dendrilla sp. Marine Sponge” (J Nat Prod, 2023).

Data set [1] is described as follows: Cytotoxicity against mouse NS-1 cells incubated for 96 hrs by resazurin dye based assay. It is filed as functional. In general terms: Resazurin is reduced to fluorescent resorufin, in cell work by metabolically active cells.
The nature of data set [2]: Cytotoxicity against human NFF cells incubated for 96 hrs by resazurin dye based assay. It is filed as toxicity, cell-based. As to conditions: read-out: MIC.
In data set [3] the test system is Saccharomyces cerevisiae. In words: Antifungal activity against Saccharomyces cerevisiae ATCC 9763 measured after 48 hrs by bromocresol green reagent based assay. It is filed as functional.
For data set [4], the system named is Tritrichomonas foetus. In words: Anti-protozoal activity against Tritrichomonas foetus KV-1 measured after 72 hrs under anaerobic conditions. It is filed as functional.
The test system of data set [5] is Bacillus subtilis. Nature of the data set: Antibacterial activity against Bacillus subtilis ATCC 6633 measured after 48 hrs by resazurin reagent based assay. It is filed as functional.
In data set [6] the test system is Candida albicans. In words: Antifungal activity against Candida albicans ATCC 10231 measured after 48 hrs by bromocresol green reagent based assay. It is filed as functional.
Data set [7] deals with Giardia intestinalis. Nature of the data set: Antiparasitic activity against Giardia duodenalis WB-1B 713 assessed as parasite growth inhibition measured after 96 hrs under anaerobic conditions. It is filed as functional.
Data set [8] deals with Staphylococcus aureus. Nature of the data set: Antibacterial activity against Staphylococcus aureus ATCC 25923 measured after 48 hrs by resazurin reagent based assay. It is filed as functional.

Converted amounts (≈) assume the structure as drawn. A value given as a limit tells only on which side of the number the result lay.

Take `C[C@H]1c2c([C@@]3(C)CCCC(C)(C)C3)ccc(C(=O)O)c2C(=O)N1CC(=O)O`: the MIC in data set [1] is > 100 µg/mL; in data set [3], > 200 µg/mL; in data set [4] it was > 100 µg/mL; in data set [5] it was > 100 µg/mL; in data set [6], > 200 µg/mL; in data set [7], 50 µg/mL (≈ 134 µM). In data set [8], the MIC was > 100 µg/mL. The MCC at 96 h in data set [2] is > 100 µg/mL.
`CSC[S@@+]([O-])CC(CO)NC(=O)/C=C/c1c(C)[nH]c(=O)[nH]c1=O` (some centres undefined) [SPARSOMYCIN]: in data set [1], the MIC worked out at 0.6 µg/mL (≈ 1.66 µM). Moreover, the MCC at 96 h in data set [2] came out at 0.6 µg/mL.
Take `CN(CC[C@H](N)CC(=O)N[C@H]1C=C[C@H](n2ccc(N)nc2=O)O[C@@H]1C(=O)O)C(=N)N.Cl`: the figures for the MIC in data set [3] and in data set [6] were 3.1 µg/mL and > 200 µg/mL, respectively.
As for `Cc1ncc([N+](=O)[O-])n1CCO` [METRONIDAZOLE], the MIC in data set [4] came to 0.2 µg/mL (≈ 1.17 µM); in data set [7], 0.3 µg/mL (≈ 1.75 µM).
In the case of `CN(C)[C@@H]1C(O)=C(C(N)=O)C(=O)[C@@]2(O)C(O)=C3C(=O)c4c(O)cccc4[C@@](C)(O)[C@H]3C[C@@H]12` [TETRACYCLINE], the MIC stood at 6.3 µg/mL (≈ 14.2 µM) in data set [5] and 12.5 µg/mL (≈ 28.1 µM) in data set [8].
As for `C[C@@H]1c2c([C@@]3(C)CCCC(C)(C)C3)ccc(C(=O)O)c2C(=O)N1CC(=O)O`, the MIC in data set [1] is > 100 µg/mL; in data set [3], > 200 µg/mL; in data set [4] it was > 100 µg/mL; in data set [5], > 100 µg/mL; in data set [6] it was > 200 µg/mL; in data set [7], 100 µg/mL (≈ 268 µM). In data set [8], the MIC is > 100 µg/mL. The MCC at 96 h in data set [2] was > 100 µg/mL.
